{"source": "patent US20250115628A1", "about": "“FLUORINATED FLUOROPHORES” (HOWARD HUGHES MEDICAL INSTITUTE, priority 2023, published 2025)", "key": {"[1]": {"system": "ScAMPI (SNAP-tag®-Epac1-HaloTag®) expressed in U2OS cells", "experiment": "cAMP FLIM-FRET sensor ScAMPI (fluorescence lifetime imaging)", "type": "cell-based", "from_the_text": "The Epac-based cAMP sensor “Epac-S^H189”, was obtained from Addgene (Plasmid #170348). This sensor consists of a mTurquoise fluorescent protein and a tdDark Venus protein linked via the Epac1 protein.\nTo construct the SNAP-tag®-Epac1-HaloTag® sensor, the sequence encoding the tdDark Venus domain in Epac-S^H189 was first replaced with the HaloTag® sequence using Nhe1 and Asc1 fragment ligation (NEB), creating a construct with mTurquoise and HaloTag® flanking the Epac1 domain (i.e, mTurquoise-Epac1-HaloTag®). […]\nTo evaluate this semisynthetic system in cells, U2OS cells (ATCC) were maintained in DMEM (Corning) containing 10% v/v FBS (ATCC), 1% v/v L-glutamine (Gibco) and 1% v/v Pen/Strep (Gibco). […] Fluorescence lifetime imaging was performed with a Leica SP8 Falcon using LASX software for image acquisition and analysis. […] Fluorescence emission was collected by the HyD detector. […] Mean amplitude weighted lifetime image (τmean) was calculated by fixing the two lifetimes and performing an image fit for their respective amplitudes (a1 and a2). FRET efficiency was calculated using the mean lifetime obtained in absence (τmean,-forskolin) and (τmean,+forskolin) presence of forskolin as 1^−(τmean,-forskolin/τmean,+forskolin)."}, "HaloTag® protein": {"molecular_target": "T1, HaloTag® protein (Rhodococcus rhodochrous, UniProt P0A3G2, A155T/A167V/A172T/A224E/C128F/C176G/D78G/E160K/E257K/H272N/K175M/K195N/L47V/L88M/N227D/P291S/S2A/S58T/T264A/Y273L/Y87F)", "T1 construct": "6xHis; made in house; host or cells: bacterial expression (pRSET-A vector, Invitrogen)", "T1 sequence (P0A3G2 other isoform, or with tags, fused parts or gaps with the stated changes)": "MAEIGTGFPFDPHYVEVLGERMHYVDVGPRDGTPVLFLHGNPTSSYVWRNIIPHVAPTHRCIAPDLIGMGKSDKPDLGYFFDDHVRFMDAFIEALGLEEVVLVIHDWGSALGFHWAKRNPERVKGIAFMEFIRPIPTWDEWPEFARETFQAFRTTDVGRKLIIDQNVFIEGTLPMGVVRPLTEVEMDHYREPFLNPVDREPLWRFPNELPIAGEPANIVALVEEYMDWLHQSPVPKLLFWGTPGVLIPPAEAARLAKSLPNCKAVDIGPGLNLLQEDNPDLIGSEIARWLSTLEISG", "experiment": "Absorption increase of ligands on binding HaloTag® protein", "type": "biochemical", "method": "The bacterial expression vector pRSET-A (Invitrogen) was used to recombinantly express HaloTag® (HT7; Promega).^7 The soluble 6×His-Tagged HaloTag® protein was affinity purified by immobilized metal affinity chromatography (IMAC) on a 5^−mL Fast Flow HiTrap Sepharose 6 column (Cytiva) with a 0-200 mM imidazole elution gradient using an ÄKTA Avant Protein Purification System (Cytiva).\nHaloTag® protein was used as a […] solution in 1× TBS. Absorption measurements were performed in 1.4^−mL semi-micro quartz cuvettes. A […] solution of HaloTag® ligand 65HTL or 91HTL was prepared in 10 mM HEPES, pH 7.3 containing 0.1 mg mL-1 CHAPS. An aliquot of HaloTag® protein (2 equiv, […] [HaloTag®]) was added. To examine chromogenicty (FIG. 5B, left panel), the resulting mixture was incubated until a consistent absorption signal/spectrum was observed (<60 min for 65HTL); an equivalent volume of 1× TBS blank was added to separate “−HT” samples in place of enzyme to record the ligand-only absorption. Spectra are averages (n=2). To compare rates of HaloTag® labeling (FIG. 5B, right panel) absorption at λabs (645 nm for 65HTL, 621 nm for 91HTL) was recorded at regular intervals (0.1 min, 0-5 min; 1 min, 5-120 min; 5 min, 2-24 h) immediately following addition of HaloTag® protein."}, "[2]": {"system": "U2OS cells stably expressing HaloTag®-histone H2B fusion protein", "experiment": "Loading experiments using ligands 65HTL and 91HTL (JF552-HaloTag® ligand chase)", "type": "cell-based", "conditions": "200 nM, 0-4 h", "method": "U2OS cells (ATCC) and U2OS cells stably expressing an integrated HaloTag®-histone H2B fusion protein (U2OS·H2B·HaloTag®) were cultured in Dulbecco's modified Eagle medium (DMEM, phenol red-free; Life Technologies) supplemented with 10% (v/v) fetal bovine serum (FBS, Life Technologies), 1 mM GlutaMAX (Life Technologies) and maintained at 37° C. in a humidified 5% (v/v) CO2 environment. These cell lines undergo regular mycoplasma testing by the Janelia Cell Culture Facility. For mitochondrial imaging using the HaloTag® system, U2OS cells were transiently transfected using nucleofection (Lonza) with a plasmid constitutively expressing a HaloTag®-TOMM20 fusion protein, which is located on the outer mitochondrial membrane. […]\nFor loading curve experiments, U2OS·H2B·HaloTag® stable cells were incubated with 200 nM 65HTL and 91HTL for 0-4 h at 37° C., washed 3× with dye-free media then chased with 200 nM JF552-HaloTag® ligand 15 for 30 min at 37° C., washed 3× with dye-free media and fixed with 4% paraformaldehyde in 0.1 M phosphate buffer, pH 7.4 for 15 min at 37° C. […] Fluorescence was quantified as the integrated density of nuclear signals from confocal image stack projections analyzed in FIJI;^82 n=100 nuclear signals per compound."}}}
{"smiles": "C=C/C=C(C=C)/[N+](C)=C1\\C=CC2=C(c3c(F)c(C(=O)NCCOCCOCCCCCCCl)c(F)c(F)c3C(=O)[O-])c3ccc(N(C)c4ccccc4)cc3C(C)(C)C2=C1", "note": "[65HTL, JQ645-HaloTag® ligand]", "values": [{"measurement": "FRET quenching of the JFX612 donor", "setting": "[1]", "result": "effective FRET quencher"}, {"measurement": "HaloTag® labeling in vitro compared with 91HTL", "setting": "HaloTag® protein; absorbance vs. time upon addition to HaloTag® protein", "result": "substantially faster"}, {"measurement": "ε of HaloTag® conjugate", "setting": "HaloTag® protein; after incubation with HaloTag® protein", "result": "110,000 M^−1 cm^−1"}, {"measurement": "λabs used for HaloTag® labeling read-out", "setting": "HaloTag® protein; ligand in 10 mM HEPES, pH 7.3 with CHAPS, HaloTag® protein added", "result": 645, "unit": "nm"}, {"measurement": "increase in absorptivity on incubation with HaloTag® protein", "setting": "HaloTag® protein; ligand with 2 equiv HaloTag® protein, 10 mM HEPES, pH 7.3", "result": 47, "unit": "fold"}, {"measurement": "HaloTag® labeling in cells compared with 91HTL", "setting": "[2]", "result": "substantially faster"}]}
